Reference: article PMC10843894 (Cell and tissue research, 2011)
Ends that are not written are not given here.

How the values were obtained:
[1] = test system: intracellular Ca^2+; test: Secretin-induced catecholamine secretion with intracellular Ca2+ chelator; type: cell-based, rat; settings: BAPTA-AM 50 μM pre-treatment 30 min; secretin 8 μM, 20 min, Ca2+-free buffer + 0.5 mM EGTA
[2] = test system: PLC-β; test: Inhibition of secretin-evoked catecholamine secretion by PLC-β blockade; type: cell-based, rat; settings: secretin 8 μM, 20 min
[3] = test system: phospholipase C; settings: U-73122 20 μM, secretin 8 μM, 0.5 min
[4] = test system: plasma membrane Ca^2+ channels; type: cell-based, rat
[5] = test system: plasma membrane Ca^2+ channels; type: cell-based, rat; settings: ZnCl2 100 μM; data not shown
[6] = test system: catecholamine secretion; settings: cited from earlier work
[7] = test system: cAMP in PC12 cells; settings: cited from earlier work
[8] = test system: Th gene; settings: cited from earlier work; for transcription of Th (PACAP and VIP, literature): porcine/bovine chromaffin cells, PC12 cells, CATH.a cells, ref Isobe et al. 1996, Park et al. 1999, Tonshoff et al. 1997, Corbitt et al. 1998, 2002, Yukimasa et al. 1999, Muller et al. 1997
[9] = target: T1, VPAC1 (Rattus norvegicus, UniProt P30083); test: Blockade of secretin-induced Th transcription by VPAC1 antagonist; settings: pre-treatment before secretin 0.1 μM (Fig. 1d)
T1 sequence (P30083 31-459): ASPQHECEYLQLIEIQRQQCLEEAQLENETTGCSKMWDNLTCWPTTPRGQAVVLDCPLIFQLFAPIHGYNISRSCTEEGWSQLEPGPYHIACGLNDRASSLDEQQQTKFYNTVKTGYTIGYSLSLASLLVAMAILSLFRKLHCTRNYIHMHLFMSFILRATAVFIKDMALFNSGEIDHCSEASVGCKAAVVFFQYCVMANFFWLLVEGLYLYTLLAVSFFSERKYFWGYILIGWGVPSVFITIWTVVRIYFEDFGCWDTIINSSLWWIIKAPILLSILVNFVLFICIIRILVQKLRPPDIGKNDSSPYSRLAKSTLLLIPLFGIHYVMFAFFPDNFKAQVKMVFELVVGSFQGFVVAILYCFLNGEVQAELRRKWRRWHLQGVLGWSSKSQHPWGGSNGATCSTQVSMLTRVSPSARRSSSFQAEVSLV

[10] = test system: PAC1 receptor; test: PAC1 receptor agonism inferred from secretion concentrations; type: cell-based; settings: inferred from secretion findings
[11] = test system: SCTR; test: Inhibition of secretin-induced catecholamine secretion by SCTR antagonist; type: cell-based, rat; settings: antagonist up to 20 μM, secretin 6 μM, 30 min

Compound: CC(=O)OCOC(=O)CN(CC(=O)OCOC(C)=O)c1ccccc1OCCOc1ccccc1N(CC(=O)OCOC(C)=O)CC(=O)OCOC(C)=O [BAPTA-AM]
- effect of BAPTA-AM on secretin-induced catecholamine secretion [1]: completely abolished

Compound: COc1ccc2c(c1)CC[C@@H]1[C@@H]2CC[C@]2(C)[C@@H](NCCCCCCN3C(=O)C=CC3=O)CC[C@@H]12 [U73122]
- inhibition of secretin-evoked catecholamine secretion by PLC-β inhibitor ([2]; U-73122 10 μM): ~ 54%
- inhibition of IP3 levels by PLC blockade [3]: ~ 61%

Compound: COc1ccc2c(c1)CC[C@@H]1[C@@H]2CC[C@]2(C)[C@@H](NCCCCCCN3C(=O)CCC3=O)CC[C@@H]12 [U-73343]
- effect of inactive isomer on secretin-induced secretion ([2]; U-73343 10 μM): did not affect secretin-induced secretion

Compound: [Cl-].[Cl-].[Zn+2] [ZnCl2]
- effect of non-specific Ca2+ channel blockade on secretin-induced secretion ([4]; ZnCl2 100 μM, secretin 8 μM, 20 min): ineffective
- block of PACAP-induced catecholamine secretion [5]: completely blocked

Compound: CN1CCC[C@H]1c1cccnc1 [nicotine]
- prolonged catecholamine secretion, nicotine (literature) ([6]; ref Hamelink et al. 2002): does not cause prolonged catecholamine secretion

Compound: Pituitary adenylyl cyclase activating polypeptide [PACAP]
- intracellular cAMP levels in chromaffin cells (literature), PACAP ([7]; ref Hamelink et al. 2002): elevated
- transcription of Th (PACAP and VIP, literature) [8]: augment the transcription of Th
- concentration achieving significant catecholamine secretion (PACAP) ([6]; ref Chowdhury et al. 1994, Przywara et al. 1996): 10 nM
- prolonged catecholamine secretion, PACAP (literature) ([6]; ref Taupenot et al. 1999): long-lasting

Compound: VIP6–28: VPAC1 (VIP6–28) antagonist (FTDNYTRLRKQMAVKKYLNSILN; ends and bridges not checked; UniProt P01282 130-152, looked up, fragment)
- effect of VPAC1 antagonist on Th gene expression induced by secretin or PHI ([8]; ref Wessels-Reiker et al. 1993): no significant effect
- effect of VPAC1 antagonist on VIP-increased Th mRNA ([8]; ref Wessels-Reiker et al. 1993): lowers the effect of VIP on increasing Th mRNA
- effect on secretin-induced transcription of Th gene, VPAC1 antagonist [9]: Failure

Compound: Vasoactive intestinal polypeptide [VIP]
- agonism at PAC1 receptor [10]: poor agonists for the PAC1 receptor
- intracellular cAMP levels in chromaffin cells (literature), VIP ([7]; ref Anderova et al. 1998): elevated
- transcription of Th (PACAP and VIP, literature) [8]: augment the transcription of Th
- concentration achieving significant catecholamine secretion (VIP) ([6]; ref Guo and Wakade 1994, Wakade et al. 1991): 300 nM
- source of Ca2+ for VIP-induced catecholamine secretion ([6]; ref Malhotra et al. 1988): depends solely upon Ca^2+ mobilization from intracellular stores

Compound: secretin5–27: SCTR antagonist (secretin5–27) (TFTSELSRLREGARLQRLLQGLV; ends and bridges not checked; UniProt P09683 32-54, looked up, fragment)
- effect of SCTR antagonist on secretin-induced secretion [11]: failed to inhibit secretion
- effect of SCTR antagonist on VIP- or PHI-induced Th gene expression ([8]; ref Wessels-Reiker et al. 1993): no significant effect
- effect of SCTR antagonist on secretin-induced Th gene expression (literature) ([8]; ref Wessels-Reiker et al. 1993): reduces the effect of secretin

Compound: ω-agatoxin
- effect of Ca2+ channel inhibitors on secretin-induced catecholamine secretion [4]: little to no effect

Compound: ω-conotoxin GVIA
- effect of Ca2+ channel inhibitors on secretin-induced catecholamine secretion [4]: little to no effect

Compound: ω-conotoxin MVIIC
- effect of Ca2+ channel inhibitors on secretin-induced catecholamine secretion [4]: little to no effect
